# Data taken from publication PMC7078479, “Sulfamoyl Heteroarylcarboxylic Acids as Promising Metallo-β-Lactamase Inhibitors for Controlling Bacterial Carbapenem Resistance” (mBio, 2020).
# pKi: −log10 of the molar value. “Also recorded” adds a separate entry of the source. Like-named read-outs stand apart in the source and are kept apart here.
# Assays:
# [1] = system: P. aeruginosa PAO1/pME-NDM-1; assay: Susceptibility testing, NDM-1-producing P. aeruginosa PAO1; format: cell-based; details: Pseudomonas aeruginosa
# Experimental: (§1) MICs were determined via the microdilution method according to the CLSI guidelines ([38]). In brief, 5 × 10^4 bacterial cells were inoculated in 100 μl of cation-adjusted Mueller-Hinton broth (Becton, Dickinson and Company, Franklin Lakes, NJ) containing the β-lactams and appropriately diluted inhibitors. The final concentration of DMSO was maintained at 2% in the assays. The tested plates were then incubated at 35°C for 16 to 20 h. The MIC value was determined as the lowest concentration of tested β-lactams where no bacterial growth was visibly observed. The optical density at 600 nm (OD600) value was measured using a plate reader for drawing the heat maps. The FIC index value was calculated using the following equation: FIC index=MIC of β-lactam with inhibitor/MIC of β-lactam alone+MIC of inhibitor with β-lactam/MIC of inhibitor alone
# [2] = system: E. coli DH5α/pBC-TMB-2; assay: Susceptibility testing, TMB-2-producing E. coli; format: cell-based; details: Escherichia coli
# Experimental: as §1
# [3] = system: SMB-1; assay: In vitro inhibition assay, IPM hydrolysis by SMB-1; format: biochemical; details: even in the presence of 100 μM SFC
# Experimental: (§2) MBL (10 nM) was mixed with the inhibitors and incubated for 5 min at 30°C. IPM was added to reach a concentration of 150 μM, and the velocity of IPM hydrolysis was monitored at 298 nm. The assay was performed at 30°C using 10 mM HEPES (pH 7.5) buffer containing 200 mM NaCl and 50 μg/ml bovine serum albumin (BSA) for IMP-1, NDM-1, VIM-2, and SMB-1. For SFH-1 and L1, another 10 mM HEPES (pH 7.5) buffer containing 200 mM NaCl, 20 μM ZnSO4, and 50 μg/ml BSA was used.
# [4] = system: P. aeruginosa PAO1/pME-IMP-1; assay: Susceptibility testing, IMP-1-producing P. aeruginosa PAO1; format: cell-based; details: Pseudomonas aeruginosa
# Experimental: as §1
# [5] = system: Pseudomonas aeruginosa clinical isolates; assay: Susceptibility testing, 17 P. aeruginosa clinical isolates; format: cell-based
# Experimental: as §1
# [6] = system: E. coli BL21(DE3)/pET-SIM-1; assay: Susceptibility testing, SIM-1-producing E. coli; format: cell-based; details: Escherichia coli
# Experimental: as §1
# [7] = biological target: T1, OXA-48 (Klebsiella pneumoniae, UniProt Q6XEC0); assay: Serine β-lactamase inhibition, nitrocefin hydrolysis by OXA-48; format: biochemical; details: nitrocefin 100 μM
# T1 construct: made in house; host or cells: E. coli BL21(DE3)pLysS
# T1 sequence (Q6XEC0 23-265, looked up, species assumed): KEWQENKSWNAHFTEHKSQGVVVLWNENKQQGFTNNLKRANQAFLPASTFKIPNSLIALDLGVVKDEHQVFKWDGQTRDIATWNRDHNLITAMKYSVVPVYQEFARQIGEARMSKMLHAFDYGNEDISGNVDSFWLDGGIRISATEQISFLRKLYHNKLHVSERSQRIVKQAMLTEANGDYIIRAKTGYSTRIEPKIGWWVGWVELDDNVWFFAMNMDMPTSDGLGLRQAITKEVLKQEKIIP
# Experimental: (§3) The serine–β-lactamases (1 nM) TLA-3, CMY-2, and OXA-48 were mixed with SFC in 100 mM phosphate buffer (pH 7.0) and incubated for 5 min at 30°C. Nitrocefin was added to reach a concentration of 100 μM, and the velocity of nitrocefin hydrolysis was monitored at 482 nm. Avibactam (MedKoo Bioscience, Morrisville, NC) was used as an inhibitor for serine–β-lactamases. The inhibitory effect of SFC against ACE was evaluated using ACE Kit-WST (Dojindo Laboratories, Kumamoto, Japan). The residual ACE activity was calculated as described in the manufacturer’s protocol as follows: [1 − (Acontrol − Asample)/(Acontrol − Abackground)] × 100. EDTA solution (Nippon Gene, Tokyo, Japan) was used as an ACE inhibitor.
# [8] = system: NDM-type MBL-producing Enterobacteriaceae; assay: Susceptibility testing, 14 NDM-type MBL-producing Enterobacteriaceae isolates; format: cell-based; details: 10 μg/ml SFC, NDM-producing Enterobacteriaceae
# Experimental: as §1
# [9] = biological target: T2, NDM-1 (Klebsiella pneumoniae, UniProt C7C422); assay: Inhibition of IPM hydrolysis by purified NDM-1, Ki by Lineweaver-Burk plots; format: biochemical; details: IPM as substrate, competitive model, mean of three replicates; read-out: Inhibition constant Ki NDM-1
# T2 construct: made in house
# T2 sequence (C7C422 29-270 limits assumed): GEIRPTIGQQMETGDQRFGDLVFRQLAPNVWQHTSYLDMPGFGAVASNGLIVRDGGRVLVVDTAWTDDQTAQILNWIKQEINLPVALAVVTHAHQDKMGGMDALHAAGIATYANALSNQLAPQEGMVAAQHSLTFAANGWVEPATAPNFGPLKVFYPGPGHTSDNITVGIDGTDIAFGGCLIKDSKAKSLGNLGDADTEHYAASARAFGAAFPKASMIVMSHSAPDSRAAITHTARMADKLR
# Experimental: as §2
# (§4) Initial velocities (vo) were measured after varying the concentrations of IPM and inhibitors, and inverse velocities (1/vo) were plotted against inverse IPM concentrations […]. Lineweaver-Burk plots were constructed to obtain the inhibition constant (Ki) with the competitive inhibition model using the SigmaPlot 13 suite (Hulinks).
# [10] = system: Salmonella enterica serovar Typhimurium TA98 and TA100, E. coli WP2uvrA; assay: Ames test (reverse mutation assay)
# Experimental: Bacterial strains of Salmonella enterica serovar Typhimurium TA98 and TA100 as well as E. coli WP2uvrA were analyzed using the reverse mutation assay, which was performed by UBE Scientific Analysis Laboratory (Tokyo, Japan).
# [11] = system: E. coli BL21(DE3)/pET-DIM-1; assay: Susceptibility testing, DIM-1-producing E. coli; format: cell-based; details: Escherichia coli
# Experimental: as §1
# [12] = system: SFH-1; assay: In vitro inhibition assay, IPM hydrolysis by SFH-1; format: biochemical; details: even in the presence of 100 μM SFC
# Experimental: as §2
# [13] = system: E. coli DH5α/pBC-VIM-2; assay: Susceptibility and checkerboard testing, VIM-2-producing E. coli; format: cell-based, Escherichia coli; details: for MIC: Escherichia coli
# Experimental: as §1
# Unless noted otherwise, the FIC index was defined as the lowest value among all obtained values. The synergistic effect was defined as the effect observed when the FIC index value was ≤0.5.
# [14] = biological target: T3, IMP-1 (Serratia marcescens, UniProt P52699); assay: Inhibition of IPM hydrolysis by purified IMP-1, Ki by Lineweaver-Burk plots; format: biochemical
# T3 construct: made in house
# T3 sequence (P52699 19-246 limits assumed): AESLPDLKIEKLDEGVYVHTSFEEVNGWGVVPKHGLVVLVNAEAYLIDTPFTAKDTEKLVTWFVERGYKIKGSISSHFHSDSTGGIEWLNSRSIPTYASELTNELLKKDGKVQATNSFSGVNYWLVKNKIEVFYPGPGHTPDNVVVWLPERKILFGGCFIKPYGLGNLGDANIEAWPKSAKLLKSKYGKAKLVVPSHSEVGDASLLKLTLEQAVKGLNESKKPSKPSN
# Experimental: as §2, §4
# [15] = system: E. coli BL21(DE3)/pET-SPM-1; assay: Susceptibility testing, SPM-1-producing E. coli; format: cell-based; details: Escherichia coli
# Experimental: as §1
# [16] = system: E. coli; assay: Growth inhibition by inhibitor alone; format: cell-based, Escherichia coli; details: at least at 128 μg/ml
# Experimental: as §1
# [17] = biological target: T4, CMY-2 (Klebsiella pneumoniae, UniProt Q48434); assay: Serine β-lactamase inhibition, nitrocefin hydrolysis by CMY-2; format: biochemical; details: nitrocefin 100 μM
# T4 construct: made in house; host or cells: E. coli BL21(DE3)
# T4 sequence (Q48434 21-381, species assumed): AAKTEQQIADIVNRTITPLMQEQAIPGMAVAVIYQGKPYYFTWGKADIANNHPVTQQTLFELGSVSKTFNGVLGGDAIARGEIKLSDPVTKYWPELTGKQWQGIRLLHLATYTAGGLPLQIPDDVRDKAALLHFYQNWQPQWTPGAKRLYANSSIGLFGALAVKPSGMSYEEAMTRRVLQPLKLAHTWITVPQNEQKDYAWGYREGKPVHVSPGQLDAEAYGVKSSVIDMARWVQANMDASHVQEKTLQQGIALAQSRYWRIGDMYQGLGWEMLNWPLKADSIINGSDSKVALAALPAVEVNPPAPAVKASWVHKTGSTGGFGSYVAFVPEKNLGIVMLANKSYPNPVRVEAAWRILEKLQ
# Experimental: as §3
# [18] = Human liver microsomal stability test; format: in vitro ADME; details: 100 nM compound, 0.1 mg protein/ml, 35 min, 37°C
# Experimental: Human liver microsomal stability tests were performed by Sumika Chemical Analysis Service (Osaka, Japan). Compounds (100 nM) were incubated with human liver microsomes (0.1 mg protein/ml) for 35 min at 37°C and subjected to liquid chromatography-tandem mass spectrometry (LC-MS/MS) for quantification of the loss of the tested compounds.
# [19] = PAO1, read-out: MIC of MPM + inhibitor (10 μg/ml)
# [20] = PAO1, read-out: MIC of MPM + inhibitor (50 μg/ml)
# [21] = read-out: MIC of MPM + inhibitor (8 μg/ml)
# [22] = read-out: MIC of MPM + inhibitor (32 μg/ml)
compound,measurement,setting,value
"Cc1oc(C)c(S(N)(=O)=O)c1C(=O)O [SFC, 2,5-dimethyl-4-sulfamoylfuran-3-carboxylic acid]",MIC,[1]; [19],4 µg/mL
same,MIC,[1]; [20],4 µg/mL
same,MIC,[2]; [21],0.5 µg/mL
same,MIC,[2]; [22],0.125 µg/mL
same,Inhibition of IPM hydrolyzing activity of SMB-1,[3],did not inhibit
same,MIC,[4]; [19],32 µg/mL
same,MIC,[4]; [20],16 µg/mL
same,Drop of MPM MIC50,[5]; 10 μg/ml SFC,2 fold
same,Drop of MPM MIC50,[5]; 50 μg/ml SFC,8 fold
same,MIC,[6]; [21],2 µg/mL
same,MIC,[6]; [22],1 µg/mL
same,Inhibitory effect against OXA-48 (class D),[7],nonexistent or insufficient
same,Reduction of MPM MIC50,[8],8 fold
same,pKi,[9],5.01
same,"Ames test, mutagenicity",[10],negative
same,MIC,[11]; [21],2 µg/mL
same,MIC,[11]; [22],2 µg/mL
same,Inhibition of IPM hydrolyzing activity of SFH-1,[12],did not inhibit
same,MIC ceftazidime + 2 μg/mL compound,[13]; E. coli DH5α/pBC-VIM-2,16 µg/mL
same,Reduction in CAZ MIC,"[13]; E. coli DH5α/pBC-VIM-2, 2 μg/ml compound",no reduction
same,MIC,[13]; read-out: MIC of CAZ + inhibitor (8 μg/ml),4 µg/mL
same,MIC,[13]; read-out: MIC of CAZ + inhibitor (32 μg/ml),2 µg/mL
same,FIC index,"[13]; checkerboard with CAZ, E. coli DH5α/pBC-VIM-2, lowest value",0.31
same,pKi,[14],6.66
same,MIC,[15]; [21],0.063 µg/mL
same,MIC,[15]; [22],0.063 µg/mL
same,Growth inhibition by SFC alone,[16],did not show growth inhibition
same,Inhibitory effect against CMY-2 (class C),[17],nonexistent or insufficient
same,Stability in human liver microsomes,[18],did not lead to structural changes; also recorded: high stability
